From ChEMBL document CHEMBL1154570, “HIV-inhibitory cembrane derivatives from a Philippines collection of the soft coral Lobophytum species” (J Nat Prod, 2000)
Converted amounts (≈) assume the structure as drawn.

What was measured:
[1] = test system: Human immunodeficiency virus 1; assay: Antiviral activity against HIV1 assessed as cellular protection by cell based XTT assay; format: functional
[2] = test system: Human immunodeficiency virus 1; assay: Antiviral activity against HIV1 assessed as inhibition of cytopathic effect by cell based XTT assay; format: functional, organism-based

SMILES | Activity [1] [%] | EC50 [2] [µg/mL] | IC50 [2] [µg/mL]
C/C1=C\[C@@H]2OC(=O)[C@@H](CN(C)C)[C@@H]2CC/C(C)=C/CC/C(C(=O)O)=C/CC1 | 55 | 3.3 (≈ 8.79 µM) | 10.2 (≈ 27.2 µM)
C=C1C(=O)O[C@H]2/C=C(\C)CC/C=C(\C(=O)O)CC/C=C(\C)CC[C@@H]12 [(7Z)-LOBOHEDLEOLIDE] | 55 | 4.6 (≈ 13.9 µM) | 7.6 (≈ 23 µM)
C=C1C(=O)O[C@H]2/C=C(\C)CC/C=C(/C(=O)O)CC/C=C(\C)CC[C@@H]12 [LOBOHEDLEOLIDE] | 55 | 3.6 (≈ 10.9 µM) | 9 (≈ 27.2 µM)
